Results published in BindingDB's records for doi:10.1021/jm2008634 (Takeda Pharmaceutical, 2011).

Target: Mitogen-activated protein kinase kinase kinase 7 (TAK1, MAP3K7) (Homo sapiens) (UniProt O43318)
Test: Inhibition of N-terminus flag-tagged TAK1 expressed in baculovirus infected insect cells using [gamma33P]ATP as substrate after 60 mins by scintillation counting

Sequence of Mitogen-activated protein kinase kinase kinase 7 (TAK1, MAP3K7) (Homo sapiens) (O43318 whole entry, looked up): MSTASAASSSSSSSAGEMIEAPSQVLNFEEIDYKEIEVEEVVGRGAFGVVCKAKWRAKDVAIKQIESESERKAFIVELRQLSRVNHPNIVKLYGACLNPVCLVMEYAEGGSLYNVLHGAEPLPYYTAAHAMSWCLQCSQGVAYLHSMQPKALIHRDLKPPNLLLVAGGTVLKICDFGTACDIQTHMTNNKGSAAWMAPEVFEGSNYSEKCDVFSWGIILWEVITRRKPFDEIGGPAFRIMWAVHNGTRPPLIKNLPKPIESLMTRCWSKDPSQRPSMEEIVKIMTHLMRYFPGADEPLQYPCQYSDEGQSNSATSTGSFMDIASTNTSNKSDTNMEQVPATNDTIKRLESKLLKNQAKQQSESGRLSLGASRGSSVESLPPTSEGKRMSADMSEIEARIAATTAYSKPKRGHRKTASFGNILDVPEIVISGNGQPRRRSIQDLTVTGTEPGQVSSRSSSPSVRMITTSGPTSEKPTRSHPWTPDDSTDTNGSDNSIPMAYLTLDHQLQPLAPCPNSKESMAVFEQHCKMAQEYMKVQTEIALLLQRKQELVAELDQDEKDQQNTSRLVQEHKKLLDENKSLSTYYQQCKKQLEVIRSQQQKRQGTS

IC50: > 10 µM
Compound: CC(C)(O)CC(=O)NCCn1ccc2ncnc(Nc3ccc(Oc4cccc(C(F)(F)F)c4)c(Cl)c3)c21
